Series [1] can be described thus: log P by HPLC on a reversed-phase column (C 18), EEC Directive 79/831 Annex V.A8. It counts as physicochemical. Particulars: HPLC C 18, 40° C., 0.1% aqueous formic acid and acetonitrile; for logP: Table 1, several values = mixture of 2 or more isomers; for chromatographic logP: reversed-phase HPLC column (C 18), Table 2, compounds of formula (IIa). Here is the method:
In table 1, the log P values were determined in accordance with EEC Directive 79/831 Annex V.A8 by HPLC (High Performance Liquid Chromatography) on a reversed-phase column (C 18), using the method described below:
Temperature: 40° C.; Mobile phases: 0.1% aqueous formic acid and acetonitrile; linear gradient from 10% acetonitrile to 90% acetonitrile.
Calibration was carried out using unbranched alkan-2-ones (comprising 3 to 16 carbon atoms) with known log P values (determination of the log P values by the retention times using linear interpolation between two successive alkanones). lambda-max-values were determined using UV-spectra from 200 nm to 400 nm and the peak values of the chromatographic signals.

Another series deals with Puccinia recondita. Briefly: In vivo preventive test on Puccinia recondita (brown rust on wheat). To be noted: 500 ppm of active ingredient; wheat plants, preventive spray; grading 12 days after contamination. As to the method:
(§1) The active ingredients tested are prepared by homogenization in a mixture of acetone/tween/DMSO, and then diluted with water to obtain the desired active material concentration.
Wheat plants (“Scipion” variety), sown in starter cups on a 50/50 peat soil pozzolana substrate and grown at 22° C., are treated at the 1 leaf stage (10 cm height) by spraying with the active ingredient prepared as described above. Plants, used as controls, are treated with the mixture of acetone/tween/DMSO/water not containing the active material.
After 24 hours, the plants are contaminated by spraying the leaves with an aqueous suspension of Puccinia recondita spores (100 000 spores per mL). The spores are collected from an infected plant and are suspended in water containing 2.5 mL/L of Tween 80 at 10%. The contaminated wheat plants are incubated for 24 hours at 20° C. and at 100% relative humidity, and then for 10 days at 20° C. and at 70-80% relative humidity.
Grading (% of efficacy) is carried out 12 days after the contamination, in comparison with the control plants.
Under these conditions, good (at least 70%) to total protection is observed at a dose of 500 ppm of active ingredient with the following compounds from table I: […]

A further series relates to Uromyces appendiculatus. In words: In vivo preventive test on Uromyces appendiculatus (bean rust). Particulars: bean plants; for protection: Table K2 comparison with saturated analogues, 500 ppm, preventive, 11 days after contamination. As to the method:
as §1
After 24 hours, the plants are contaminated by spraying the leaves with an aqueous suspension of Uromyces appendiculatus spores (150 000 spores per mL). The spores are collected from infected plants and are suspended in water containing 2.5 mL/L of Tween 80 at 10%. The contaminated bean plants are incubated for 24 hours at 20° C. and at 100% relative humidity, and then for 10 days at 20° C. and at 70-80% relative humidity.
Grading (% of efficacy) is carried out 11 days after the contamination, in comparison with the control plants.

The next series has as its system Pyrenophora teres. Briefly: In vivo preventive test on Pyrenophora teres (barley). Particulars: Table H2; 100 ppm, barley plants, preventive, grading 14 days after contamination. As to the method:
as §1
Barley plants (“Plaisant” variety), sown in starter cups on a 50/50 peat soil pozzolana substrate and grown at 22° C., are treated at the 1 leaf stage (10 cm height) by spraying with the active ingredient prepared as described above. Plants, used as controls, are treated with the mixture of acetone/tween/DMSO/water not containing the active material.
After 24 hours, the plants are contaminated by spraying the leaves with an aqueous suspension of Pyrenophora teres spores (12 000 spores per mL). The spores are collected from a 12-day-old culture.
The contaminated barley plants are incubated for 48 hours at 20° C. and at 100% relative humidity, and then for 12 days at 20° C. at 70-80% relative humidity.
Grading (% of efficacy) is carried out 14 days after the contamination, in comparison with the control plants.
Under these conditions, good (at least 70%) to total protection is observed at a dose of 500 ppm of active ingredient with the following compounds from table H1: […]

Setting [2] is: dose 100 ppm, comparison with saturated analogues (table K2).
Where [3] appears, read: dose 500 ppm, comparison with saturated analogues (table K2).
Where [4] appears, read: 500 ppm of active ingredient, preventive spray, grading 11 days after contamination (table K1).

The structures appear in SMILES notation. Marks after values point to notes of the source that are not given here.

With `CC1CC=C(c2ccc(F)cc2CN(C(=O)c2c(C(F)F)nn(C)c2Cl)C2CC2)CC1` (racemic) [I.47], the logP in series [1] is on record as 5.14. Besides, the Efficacy with Puccinia recondita is on record as 81%.
`CC1CC=C(c2ccc(F)cc2CN(C(=S)c2c(C(F)F)nn(C)c2Cl)C2CC2)CC1` (racemic) [I.48]: the logP in series [1] stood at 5.77.
Regarding `Cn1nc(C(F)F)c(C(=O)N(Cc2ccccc2C2CCCC2)C2CC2)c1F` [CMP4, N-(2-cyclopentylbenzyl)-N-cyclopropyl-3-(difluoromethyl)-5-fluoro-1-methyl-1H-pyrazole-4-carboxamide, reference compound], in the series with Uromyces appendiculatus, the protection entry is “poor (less than 20%) protection or plant damages”. In addition, the Efficacy in the series with Uromyces appendiculatus (setting [2]) is recorded as 100%.
For the molecule `Cn1cc(C(=O)N(Cc2ccccc2C2CCCCC2)C2CC2)c(C(F)F)n1` [CMP5, N-(2-cyclohexylbenzyl)-N-cyclopropyl-3-(difluoromethyl)-1-methyl-1H-pyrazole-4-carboxamide, reference compound], the protection entry in the series on Uromyces appendiculatus is “poor (less than 20%) protection or plant damages”. Besides, the Efficacy in the series with Uromyces appendiculatus (setting [2]) was 0%.
In the same order, the values of `Cn1nc(C(F)F)c(C(=O)N(Cc2ccccc2C2CCCCC2)C2CC2)c1F` [CMP6, N-(2-cyclohexylbenzyl)-N-cyclopropyl-3-(difluoromethyl)-5-fluoro-1-methyl-1H-pyrazole-4-carboxamide, reference compound] are “poor (less than 20%) protection or plant damages” and 38^(d) %.
Turning to `Cn1nc(C(F)F)c(C(=O)N(Cc2ccccc2C2CCCCC2)C2CC2)c1Cl` [CMP7, 5-chloro-N-(2-cyclohexylbenzyl)-N-cyclopropyl-3-(difluoromethyl)-1-methyl-1H-pyrazole-4-carboxamide, reference compound], the protection result with Uromyces appendiculatus is “poor (less than 20%) protection or plant damages”. Besides, the figures for the Efficacy with Uromyces appendiculatus (setting [2]) and in the series on Uromyces appendiculatus (setting [3]) were 0% and 13%, respectively.
As for `Cn1cc(C(=O)N(Cc2ccccc2C2=CCCC2)C2CC2)c(C(F)F)c1` [I.5], in series [1], the logP came out at 4.13.
Regarding `O=C(c1ccsc1I)N(Cc1ccccc1C1=CCCC1)C1CC1` [I.6], the logP in series [1] was 4.85. In the series on Uromyces appendiculatus (setting [4]), this molecule had an Efficacy of 88%.
As for `Cn1nc(C(F)F)c(C(=O)N(Cc2cc(C3=CCCC3)ccc2Cl)C2CC2)c1Cl` [I.8], in series [1], the log partition coefficient (logP) came to 4.82. In addition, in the series with Pyrenophora teres, the Efficacy is given as 71%.
In the same order, the values of `Cn1nc(C(F)F)c(C(=O)N(Cc2cc(C3=CCCC3)ccc2Cl)C2CC2)c1F` [I.9] are 4.59 and 79%.
As to `Cn1cc(C(=O)N(Cc2cc(C3=CCCC3)ccc2Cl)C2CC2)c(C(F)F)n1` [I.10], in series [1], the logP turned out to be 4.14.
The same measure, in the same setting: next, `Cn1cc(C(=O)N(Cc2cc(C3=CCCC3)ccc2Cl)C2CC2)c(C(F)F)c1` [I.11]: 4.63.
Same read-out and setting: then `O=C(c1ccsc1I)N(Cc1cc(C2=CCCC2)ccc1Cl)C1CC1` [I.12], with 5.51.
Regarding `Cn1nc(C(F)F)c(C(=O)N(Cc2cc(Cl)ccc2C2=CCCC2)C2CC2)c1F` [I.20], the logP in series [1] is 4.54. In the series on Pyrenophora teres, the Efficacy came out at 97%.
For `O=C(c1ccsc1I)N(Cc1cc(Cl)ccc1C1=CCCC1)C1CC1` [I.21], the logP in series [1] is listed as 5.36.
For the molecule `Cn1cc(C(=O)N(Cc2cc(Cl)ccc2C2=CCCC2)C2CC2)c(C(F)F)n1` [I.22], in series [1], the logP came to 4.06. This molecule yielded an Efficacy in the series on Pyrenophora teres of 71%.
In the case of `Cn1nc(C(F)F)c(C(=O)N(Cc2cc(Cl)ccc2C2=CCCC2)C2CC2)c1Cl` [I.23], the logP in series [1] is reported as 4.74.
With `Cn1cc(C(=O)N(Cc2cc(Cl)ccc2C2=CCCC2)C2CC2)c(C(F)F)c1` [I.24], in series [1], the logP was 4.58.
As to `Cn1nc(C(F)F)c(C(=O)N(Cc2ccccc2C2=CCCCC2)C2CC2)c1Cl` [I.29], in series [1], the logP came out at 4.66. The Efficacy in the series on Puccinia recondita is 81%; in the series with Uromyces appendiculatus (setting [4]), 84%; in the series with Uromyces appendiculatus (setting [2]), 35%; with Uromyces appendiculatus (setting [3]), 84%.
`O=C(c1ccsc1I)N(Cc1cc(C2=CCCCC2)ccc1Cl)C1CC1` [I.35]: in series [1], the logP is 5.87.
Same read-out and setting: then `Cn1cc(C(=O)N(Cc2cc(C3=CCCCC3)ccc2Cl)C2CC2)c(C(F)F)c1` [I.36], with 4.93; and `Cn1cc(C(=O)N(Cc2cc(C3=CCCCC3)ccc2Cl)C2CC2)c(C(F)F)n1` [I.37], with 4.46.
On the same count and under the same terms, then `Cn1nc(C(F)F)c(C(=O)N(Cc2cc(Cl)ccc2C2=CCCCC2)C2CC2)c1Cl` [I.38], with 5.11; and `Cn1cc(C(=O)N(Cc2cc(Cl)ccc2C2=CCCCC2)C2CC2)c(C(F)F)n1` [I.39], with 4.44.
Take `Cn1cc(C(=O)N(Cc2cc(Cl)ccc2C2=CCCCC2)C2CC2)c(C(F)F)c1` [I.40]: in series [1], the logP was 4.93.
As for `Cn1nc(C(F)F)c(C(=O)N(Cc2cc(Cl)ccc2C2=CCCCC2)C2CC2)c1F` [I.41], the logP in series [1] amounted to 4.88.
On the same count and under the same terms, next, `O=C(c1ccsc1I)N(Cc1cc(Cl)ccc1C1=CCCCC1)C1CC1` [I.42]: 5.78.
Regarding `O=C(c1ccsc1I)N(Cc1ccccc1C1=CCCCCC1)C1CC1` [I.52], the logP in series [1] is reported as 5.78. This molecule displayed an Efficacy in the series with Uromyces appendiculatus (setting [4]) of 75%.
For `Cn1nc(C(F)F)c(C(=O)N(Cc2cc(Cl)ccc2C2=CCCCCC2)C2CC2)c1F` [I.54], the logP in series [1] was found to be 5.31.
Same read-out and setting: then `Cn1cc(C(=O)N(Cc2cc(Cl)ccc2C2=CCCCCC2)C2CC2)c(C(F)F)c1` [I.55], with 5.34; and `Cn1nc(C(F)F)c(C(=O)N(Cc2cc(Cl)ccc2C2=CCCCCC2)C2CC2)c1Cl` [I.56], with 5.54; and `O=C(c1ccsc1I)N(Cc1cc(Cl)ccc1C1=CCCCCC1)C1CC1` [I.58], with 6.27.
In the case of `CC(NC1CC1)c1ccccc1C1=CCCC1` (stereo not shown) [IIa.1, N-{1-[2-(cyclopent-1-en-1-yl)phenyl]ethyl}cyclopropanamine], the chromatographic logP in series [1] worked out at 1.72.
Turning to `C1=C(c2ccccc2CNC2CC2)CCC1` [IIa.2, N-[2-(cyclopent-1-en-1-yl)benzyl]cyclopropanamine], in series [1], the chromatographic logP stood at 1.19.
Turning to `Clc1ccc(C2=CCCC2)c(CNC2CC2)c1` [IIa.3, N-[5-chloro-2-(cyclopent-1-en-1-yl)benzyl]cyclopropanamine], in series [1], the chromatographic logP stood at 1.28.
On the same count and under the same terms, then `CC(NC1CC1)c1cc(F)ccc1C1=CCCC1` (stereo not shown) [IIa.4, N-{1-[2-(cyclopent-1-en-1-yl)-5-fluorophenyl]ethyl}cyclopropanamine], with 1.56; and `Clc1ccc(C2=CCCC2)cc1CNC1CC1` [IIa.5, N-[2-chloro-5-(cyclopent-1-en-1-yl)benzyl]cyclopropanamine], with 1.39; and `C1=C(c2ccccc2CNC2CC2)CCCC1` [IIa.6, N-[2-(cyclohex-1-en-1-yl)benzyl]cyclopropanamine], with 1.37.
The same measure, in the same setting: then `Clc1ccc(C2=CCCCC2)c(CNC2CC2)c1` [IIa.7, N-[5-chloro-2-(cyclohex-1-en-1-yl)benzyl]cyclopropanamine], with 1.45; and `Clc1ccc(C2=CCCCC2)cc1CNC1CC1` [IIa.8, N-[2-chloro-5-(cyclohex-1-en-1-yl)benzyl]cyclopropanamine], with 1.45; and `C1=C(c2ccccc2CNC2CC2)CCCCC1` [IIa.9, N-[2-(cyclohept-1-en-1-yl)benzyl]cyclopropanamine], with 1.45.
In series [1], `Clc1ccc(C2=CCCCCC2)c(CNC2CC2)c1` [IIa.10, N-[5-chloro-2-(cyclohept-1-en-1-yl)benzyl]cyclopropanamine] returned a chromatographic logP of 1.71.

One may read the logP as a log measure of how a compound divides between an organic and an aqueous phase. One may read the chromatographic logP as a lipophilicity value derived from retention on a column. Low readings indicate a more hydrophilic compound, high ones a more lipophilic compound.
